Measured values reported in paper PMC11846858, “Macrocarpal I induces immunogenic cell death and synergizes with immune checkpoint inhibition by targeting tubulin and PARP1 in colorectal cancer” (Cell Death Discovery, 2025).

Molecular target: T1, Tubulin Beta 2B Class IIb (TUBB2B) (Homo sapiens, UniProt Q9BVA1)
T1 construct: human TUBB2B in pET28a, N-terminal His-tag, expressed in E. coli BL21 (DE3) RIL
Experiment: ITC with purified His-tagged TUBB2B; supported by DARTS in SW620 and DLD1 lysates
Assay type: binding

T1 sequence (Q9BVA1 whole entry): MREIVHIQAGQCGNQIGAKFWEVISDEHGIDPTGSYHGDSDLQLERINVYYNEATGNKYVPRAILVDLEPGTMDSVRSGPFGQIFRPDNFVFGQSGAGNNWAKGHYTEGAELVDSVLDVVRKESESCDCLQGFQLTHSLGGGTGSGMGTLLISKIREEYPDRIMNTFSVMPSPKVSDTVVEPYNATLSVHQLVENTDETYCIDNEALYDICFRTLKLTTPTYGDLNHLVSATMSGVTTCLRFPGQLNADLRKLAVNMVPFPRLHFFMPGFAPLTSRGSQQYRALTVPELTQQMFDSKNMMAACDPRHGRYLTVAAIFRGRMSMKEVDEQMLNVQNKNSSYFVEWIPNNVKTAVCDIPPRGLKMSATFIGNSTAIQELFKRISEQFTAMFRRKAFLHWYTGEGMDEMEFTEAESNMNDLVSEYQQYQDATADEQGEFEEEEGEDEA

Kd: 1540 nM
SMILES: CC(C)C[C@H](c1c(O)c(C=O)c(O)c(C=O)c1O)[C@@H]1CC[C@@](C)(O)[C@@H]2C[C@H](C(C)(C)O)CC[C@]21C [Macrocarpal I]
